Results taken from patent US8124778B2, “Tricyclic inhibitors of fatty acid amide hydrolase” (The Scripps Research Institute, priority 2007, dated 2012).

Biological target: T1, KIAA1363 (Mus musculus, UniProt Q8BLF1)
T1 construct: from tissue
T1 sequence (Q8BLF1 1-408): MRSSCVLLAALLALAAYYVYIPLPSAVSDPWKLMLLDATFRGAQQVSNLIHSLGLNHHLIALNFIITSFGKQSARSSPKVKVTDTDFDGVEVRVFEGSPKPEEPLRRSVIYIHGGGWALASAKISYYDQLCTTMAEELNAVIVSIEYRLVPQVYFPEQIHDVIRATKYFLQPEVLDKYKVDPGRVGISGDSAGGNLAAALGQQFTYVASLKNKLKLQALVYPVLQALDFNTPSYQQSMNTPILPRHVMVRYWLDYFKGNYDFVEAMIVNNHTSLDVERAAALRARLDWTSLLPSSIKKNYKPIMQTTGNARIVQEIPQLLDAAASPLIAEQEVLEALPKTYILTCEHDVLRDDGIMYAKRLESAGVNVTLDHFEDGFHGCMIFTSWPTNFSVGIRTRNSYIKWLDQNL
Assay: Proteome-wide selectivity screening, KIAA1363
Assay type: biochemical
Settings: IC50 based
Description: The present invention concerns the synthesis and evaluation of a systematic series of α-keto oxazole inhibitors having variations at the C2 acyl side chain along with results of the proteome-wide selectivity screening of the candidate inhibitors. The screening protocol is described by Leung, D.; Hardouin, C.; et al. Nature Biotech. 2003, 21, 687-691.
Selectivity Screening. […] Consequently a method for proteomic-wide screening capable of globally profiling all mammalian serine hydrolases was developed (Leung, D.; Hardouin, C.; et al. Nature Biotech. 2003, 21, 687-691) and studies have shown that the α-ketoheterocycle class of inhibitors generally are exquisitely selective for FAAH (Boger, D. L.; Miyauchi, H.; et al. J. Med. Chem. 2005, 48, 1849-1856; Leung, D.; Du, W.; et al. Bioorg. Med. Chem. Lett. 2005, 15, 1423-1428; Lichtman, A. H.; Leung, D.; et al. J. Pharmacol. Exp. Ther. 2004, 311, 441-448). However, two enzymes did emerge as potential competitive targets: triacylglycerol hydrolase (TGH) and an uncharacterized membrane-associated hydrolase that lacks known substrates or function (KIAA1363). In this screen, IC50 values are typically higher than the measured Ki values, but the relative potency, the magnitude of binding affinity differences and the rank order binding determined in the assay parallels that established by standard substrate assays. […]

Compound | selectivity for FAAH over KIAA1363 (in words)
O=C(CCCCCCc1cccnc1)c1ncc(-c2ccccn2)o1 [5f, 1-Oxo-1-[5-(2-pyridyl)oxazol-2-yl]-7-(3-pyridyl)heptane] | very selective
O=C(CCCCCCc1ccccn1)c1ncc(-c2ccccn2)o1 [5e, 1-Oxo-1-[5-(2-pyridyl)oxazol-2-yl]-7-(2-pyridyl)heptane] | very selective
